Among the data in patent US20200123115A1, “COMPOUNDS HAVING MULTIMODAL ACTIVITY AGAINST PAIN” (ESTEVE PHARMACEUTICALS, S.A., priority 2017, published 2020) are Ki values, retold here.

For assay [1], the target named is Human norepinephrine transporter (NET) (Homo sapiens, UniProt P23975). As to the kind of experiment: Binding assay to human norepinephrine transporter (NET), [3H]-Nisoxetin. The conditions noted are these: human NET enriched membranes, 5 nM [3H]-Nisoxetin. Here is the method:
Binding Assay to Human Norepinephrine Transporter (NET).
Human norepinephrine transporter (NET) enriched membranes (5 μg) were incubated with 5 nM of radiolabeled [3H]-Nisoxetin in assay buffer containing 50 mM Tris-HCl, 120 mM NaCl, 5 mM KCl, pH 7.4.
NSB (non specific binding) was measured by adding 1 μM. After 60 min incubation at 4° C., binding reaction was terminated by filtering through Multiscreen GF/C (Millipore) presoaked in 0.5% polyethyleneimine in Vacuum Manifold Station, followed by 3 washes with ice-cold filtration buffer containing 50 mM Tris-HCl, 0.9% NaCl, pH 7.4.
Filter plates were dried at 60° C. for 1 hour and 30 μL of scintillation cocktail were added to each well before radioactivity reading.
Readings were performed in a Trilux 1450 Microbeta radioactive counter (Perkin Elmer).

In assay [2] the target is Human α2δ-1 subunit of Cav2.2 calcium channel (Homo sapiens, UniProt P54289). As to the kind of experiment: Human α2δ-1 subunit of Cav2.2 calcium channel assay, [3H]-Gabapentin binding. The conditions noted are these: human α2δ-1 enriched membranes, 15 nM [3H]-Gabapentin. As for the experimental part:
Human α2δ-1 Subunit of Cav2.2 Calcium Channel Assay
Human α2δ-1 enriched membranes (2.5 μg) were incubated with 15 nM of radiolabeled [3H]-Gabapentin in assay buffer containing Hepes-KOH 10 mM, pH 7.4. NSB (non specific binding) was measured by adding 10 μM pregabalin. After 60 min incubation at 27° C., binding reaction was terminated by filtering through Multiscreen GF/C (Millipore) presoaked in 0.5% polyethyleneimine in Vacuum Manifold Station, followed by 3 washes with ice-cold filtration buffer containing 50 mM Tris-HCl, pH 7.4. Filter plates were dried at 60° C. for 1 hour and 30 μL of scintillation cocktail were added to each well before radioactivity reading. Readings were performed in a Trilux 1450 Microbeta radioactive counter (Perkin Elmer).

SMILES strings stand for the structures.

As usually defined, the Ki is the dissociation constant of the complex between target and ligand, obtained from inhibition or displacement.

Sequence of Human norepinephrine transporter (NET) (P23975 whole entry): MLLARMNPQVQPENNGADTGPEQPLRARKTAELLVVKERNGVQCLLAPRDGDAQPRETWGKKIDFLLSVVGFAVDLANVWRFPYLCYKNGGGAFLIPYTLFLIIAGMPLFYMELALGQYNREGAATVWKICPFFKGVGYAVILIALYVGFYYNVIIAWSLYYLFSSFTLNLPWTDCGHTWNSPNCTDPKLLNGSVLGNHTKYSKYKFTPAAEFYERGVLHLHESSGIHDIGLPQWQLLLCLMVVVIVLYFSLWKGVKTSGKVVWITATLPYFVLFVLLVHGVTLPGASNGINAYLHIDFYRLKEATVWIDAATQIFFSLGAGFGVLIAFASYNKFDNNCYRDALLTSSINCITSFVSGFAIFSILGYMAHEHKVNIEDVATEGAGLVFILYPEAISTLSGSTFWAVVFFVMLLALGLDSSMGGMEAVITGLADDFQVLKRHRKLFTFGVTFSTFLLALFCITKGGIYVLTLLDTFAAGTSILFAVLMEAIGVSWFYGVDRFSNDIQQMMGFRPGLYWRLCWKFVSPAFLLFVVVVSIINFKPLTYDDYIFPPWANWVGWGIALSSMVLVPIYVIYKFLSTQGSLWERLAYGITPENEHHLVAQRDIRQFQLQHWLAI
Sequence of Human α2δ-1 subunit of Cav2.2 calcium channel (P54289 25-1103): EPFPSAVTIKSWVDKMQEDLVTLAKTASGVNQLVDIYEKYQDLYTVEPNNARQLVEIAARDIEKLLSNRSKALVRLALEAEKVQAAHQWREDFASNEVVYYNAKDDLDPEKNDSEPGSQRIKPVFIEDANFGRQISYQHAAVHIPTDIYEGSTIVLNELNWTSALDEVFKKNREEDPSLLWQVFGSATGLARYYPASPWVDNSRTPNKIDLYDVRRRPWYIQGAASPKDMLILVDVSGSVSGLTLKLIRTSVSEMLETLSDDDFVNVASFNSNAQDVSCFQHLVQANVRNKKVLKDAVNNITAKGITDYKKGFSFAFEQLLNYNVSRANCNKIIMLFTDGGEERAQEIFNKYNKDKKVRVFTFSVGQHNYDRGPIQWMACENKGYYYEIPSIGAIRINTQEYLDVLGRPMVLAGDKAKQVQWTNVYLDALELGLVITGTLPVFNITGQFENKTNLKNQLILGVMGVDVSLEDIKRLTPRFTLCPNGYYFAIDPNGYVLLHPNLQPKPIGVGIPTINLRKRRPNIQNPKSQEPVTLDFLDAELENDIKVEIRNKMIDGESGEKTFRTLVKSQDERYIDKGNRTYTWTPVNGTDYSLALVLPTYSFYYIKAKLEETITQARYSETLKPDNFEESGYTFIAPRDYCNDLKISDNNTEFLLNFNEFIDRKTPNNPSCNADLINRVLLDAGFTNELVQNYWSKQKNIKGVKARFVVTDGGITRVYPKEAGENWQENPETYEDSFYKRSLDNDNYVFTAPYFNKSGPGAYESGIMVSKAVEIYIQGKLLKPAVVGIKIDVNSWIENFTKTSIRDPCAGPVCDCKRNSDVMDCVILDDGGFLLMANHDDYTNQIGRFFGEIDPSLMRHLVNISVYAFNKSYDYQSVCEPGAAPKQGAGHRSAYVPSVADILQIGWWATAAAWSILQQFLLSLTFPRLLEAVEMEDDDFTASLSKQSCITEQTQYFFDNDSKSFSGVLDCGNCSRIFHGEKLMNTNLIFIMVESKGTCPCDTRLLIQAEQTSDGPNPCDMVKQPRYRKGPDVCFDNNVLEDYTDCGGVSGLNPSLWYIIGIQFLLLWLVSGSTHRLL

Regarding `CNCCC(Oc1cccc(-c2ccnc(OC)n2)c1)c1ccccc1` (centres unmarked) [Example 1, 3-(3-(2-Methoxypyrimidin-4-yl)phenoxy)-N-methyl-3-phenylpropan-1-amine], the Ki is below 100 nM in assay [1] and 500 to 5000 nM in assay [2].
In the same order, the values of `CNCCC(Oc1cccc(-c2ccnc(C)n2)c1)c1ccccc1` (centres unmarked) [Example 2, N-methyl-3-(3-(2-methylpyrimidin-4-yl)phenoxy)-3-phenylpropan-1-amine] are 100 to 500 nM and 500 to 5000 nM.
In the same order, the values of `CNCCC(Oc1cccc(-c2ccc(C)nn2)c1)c1ccccc1` (centres unmarked) [Example 3, N-methyl-3-(3-(6-methylpyridazin-3-yl)phenoxy)-3-phenylpropan-1-amine] are 500 to 1000 nM and at least 5000 nM.
The matching figures for `CNCCC(Oc1cccc(-c2ccncn2)c1)c1ccccc1` (centres unmarked) [Example 4, N-methyl-3-phenyl-3-(3-(pyrimidin-4-yl)phenoxy)propan-1-amine]: 500 to 1000 nM and 500 to 5000 nM.
In the case of `CNCC[C@H](Oc1cccc(-c2ccnc(SC)n2)c1)c1ccccc1` [Example 5, (S)—N-methyl-3-(3-(2-(methylthio)pyrimidin-4-yl)phenoxy)-3-phenylpropan-1-amine], the Ki is below 100 nM in assay [1] and 500 to 5000 nM in assay [2].
In the same order, the values of `CNCC[C@H](Oc1cccc(-c2ccnc(C)n2)c1)c1ccccc1` [Example 6, (S)—N-methyl-3-(3-(2-methylpyrimidin-4-yl)phenoxy)-3-phenylpropan-1-amine] are 100 to 500 nM and 500 to 5000 nM.
The matching figures for `CNCC[C@@H](Oc1cccc(-c2ccnc(C)n2)c1)c1ccccc1` [Example 7, (R)—N-methyl-3-(3-(2-methylpyrimidin-4-yl)phenoxy)-3-phenylpropan-1-amine]: 500 to 1000 nM and 500 to 5000 nM.
In the same order, the values of `CNCC[C@@H](Oc1cccc(-c2ccnc(SC)n2)c1)c1ccccc1` [Example 8, (R)—N-methyl-3-(3-(2-(methylthio)pyrimidin-4-yl)phenoxy)-3-phenylpropan-1-amine] are below 100 nM and 500 to 5000 nM.
In the case of `CNCC[C@H](Oc1cccc(-c2ccnc(N)n2)c1)c1ccccc1` [Example 10, (S)-4-(3-(3-(methylamino)-1-phenylpropoxy)phenyl)pyrimidin-2-amine], the Ki in assay [1] is 100 to 500 nM; in assay [2], 500 to 5000 nM.
The matching figures for `CNCCC(Oc1cccc(-c2cnc(OC)nc2)c1)c1cccs1` (centres unmarked) [Example 18, 3-(3-(2-methoxypyrimidin-5-yl)phenoxy)-N-methyl-3-(thiophen-2-yl)propan-1-amine]: at least 1000 nM and 500 to 5000 nM.
In the same order, the values of `CNCCC(Oc1cccc(-c2ccnc(C)c2)c1)c1cccs1` (centres unmarked) [Example 19, N-methyl-3-(3-(2-methylpyridin-4-yl)phenoxy)-3-(thiophen-2-yl)propan-1-amine] are 100 to 500 nM and below 500 nM.
In the same order, the values of `CNCCC(Oc1cccc(-c2ccnc(C(F)(F)F)c2)c1)c1cccs1` (centres unmarked) [Example 22, N-methyl-3-(thiophen-2-yl)-3-(3-(2-(trifluoromethyl)pyridin-4-yl)phenoxy)propan-1-amine] are 100 to 500 nM and 500 to 5000 nM.
With `CNCCC(Oc1cccc(-c2cnc(C)nc2)c1)c1cccs1` (centres unmarked) [Example 23, N-methyl-3-(3-(2-methylpyrimidin-5-yl)phenoxy)-3-(thiophen-2-yl)propan-1-amine], the figures for the Ki in assay [1] and in assay [2] were at least 1000 nM and 500 to 5000 nM, respectively.
The matching figures for `CNCCC(Oc1cccc(-c2ccncc2C)c1)c1cccs1` (centres unmarked) [Example 24, N-methyl-3-(3-(3-methylpyridin-4-yl)phenoxy)-3-(thiophen-2-yl)propan-1-amine]: 500 to 1000 nM and 500 to 5000 nM.
In the case of `CNCCC(Oc1cccc(-c2cc(C)nc(C)c2)c1)c1cccs1` (centres unmarked) [Example 26, 3-(3-(2,6-dimethylpyridin-4-yl)phenoxy)-N-methyl-3-(thiophen-2-yl)propan-1-amine], the inhibition constant Ki in assay [1] lay in the range of 100 to 500 nM; in assay [2] it was 500 to 5000 nM.
The matching figures for `CNCCC(Oc1cccc(-c2ccncc2)c1)c1cccs1` (centres unmarked) [Example 27, N-methyl-3-(3-(pyridin-4-yl)phenoxy)-3-(thiophen-2-yl)propan-1-amine]: 100 to 500 nM and 500 to 5000 nM.
In the same order, the values of `CNCC[C@H](Oc1cccc(-c2ccnc(N3CCNCC3)n2)c1)c1ccccc1` [Example 28, (S)—N-Methyl-3-phenyl-3-(3-(2-(piperazin-1-yl)pyrimidin-4-yl)phenoxy)propan-1-amine] are at least 1000 nM and 500 to 5000 nM.
For `CCNc1nccc(-c2cccc(O[C@@H](CCNC)c3ccccc3)c2)n1` [Example 29, (S)—N-ethyl-4-(3-(3-(methylamino)-1-phenylpropoxy)phenyl)pyrimidin-2-amine], the inhibitory constant (Ki) in assay [1] was in the range of 100 to 500 nM; in assay [2] it was 500 to 5000 nM.
The matching figures for `CNCC[C@H](Oc1cccc(-c2ccnc(NC)n2)c1)c1ccccc1` [Example 30, (S)—N-methyl-4-(3-(3-(methylamino)-1-phenylpropoxy)phenyl)pyrimidin-2-amine]: below 100 nM and at least 5000 nM.
In the same order, the values of `CNCC[C@H](Oc1cccc(-c2ccnc(N3CCN(C)CC3)n2)c1)c1ccccc1` [Example 31, (S)—N-methyl-3-(3-(2-(4-methylpiperazin-1-yl)pyrimidin-4-yl)phenoxy)-3-phenylpropan-1-amine] are at least 1000 nM and 500 to 5000 nM.
Take `CNCCNc1nccc(-c2cccc(O[C@@H](CCNC)c3ccccc3)c2)n1` [Example 32, (S)—N1-methyl-N2-(4-(3-(3-(methylamino)-1-phenylpropoxy)phenyl)pyrimidin-2-yl)ethane-1,2-diamine]: the inhibition constant Ki in assay [1] is at least 1000 nM; in assay [2], 500 to 5000 nM.
The matching figures for `CNCC[C@@H](Oc1cccc(-c2ccnc(N[C@@H]3CCNC3)n2)c1)c1ccccc1` [Example 33, 4-(3-((R)-3-(methylamino)-1-phenylpropoxy)phenyl)-N—((R)-pyrrolidin-3-yl)pyrimidin-2-amine]: at least 1000 nM and 500 to 5000 nM.
As to `CNCC[C@@H](Oc1cccc(-c2ccnc(N[C@H]3CCNC3)n2)c1)c1ccccc1` [Example 34, 4-(3-((R)-3-(methylamino)-1-phenylpropoxy)phenyl)-N—((S)-pyrrolidin-3-yl)pyrimidin-2-amine], the Ki was in the range of 500 to 1000 nM in assay [1] and 500 to 5000 nM in assay [2].
The matching figures for `CNCC[C@H](Oc1cccc(-c2ccnc(N(C)C)n2)c1)c1ccccc1` [Example 35, (S)—N,N-dimethyl-4-(3-(3-(methylamino)-1-phenylpropoxy)phenyl)pyrimidin-2-amine]: below 100 nM and at least 5000 nM.
As to `CNCC[C@H](Oc1cccc(-c2ccnc(N[C@@H]3CCNC3)n2)c1)c1ccccc1` [Example 36, 4-(3-((S)-3-(methylamino)-1-phenylpropoxy)phenyl)-N—((R)-pyrrolidin-3-yl)pyrimidin-2-amine], the Ki is 500 to 1000 nM in assay [1] and 500 to 5000 nM in assay [2].
